Measured values reported in paper PMC7614687, “Modulation of the substrate specificity of the kinase PDK1 by distinct conformations of the full-length protein*” (Science signaling, 2023).

Legend:
PDK1 = molecular target: T1, PDK1 (Homo sapiens, UniProt O15530); test: PDK1 activity assay with T308tide and [γ32P]ATP; type: biochemical; set-up: made in house; host or cells: HEK293 (GST fusion) or Sf9 insect cells (His form); conditions: full-length PDK1
T1 sequence (O15530 1-556): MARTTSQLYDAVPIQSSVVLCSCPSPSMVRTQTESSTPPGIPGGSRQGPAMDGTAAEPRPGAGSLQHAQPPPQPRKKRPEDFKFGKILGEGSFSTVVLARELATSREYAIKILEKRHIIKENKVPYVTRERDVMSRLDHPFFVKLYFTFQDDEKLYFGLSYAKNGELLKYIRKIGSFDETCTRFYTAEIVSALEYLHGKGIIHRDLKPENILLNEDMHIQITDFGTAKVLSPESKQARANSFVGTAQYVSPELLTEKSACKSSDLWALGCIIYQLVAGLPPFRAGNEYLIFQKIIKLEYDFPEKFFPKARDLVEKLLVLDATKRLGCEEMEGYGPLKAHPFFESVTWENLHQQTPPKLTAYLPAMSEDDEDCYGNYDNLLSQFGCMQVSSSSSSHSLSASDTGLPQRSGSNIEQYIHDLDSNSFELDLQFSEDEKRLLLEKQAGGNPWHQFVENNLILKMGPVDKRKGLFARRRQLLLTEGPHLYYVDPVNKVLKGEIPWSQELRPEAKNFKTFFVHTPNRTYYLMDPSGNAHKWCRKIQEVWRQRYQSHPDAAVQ
Protocol: The PDK1 activity assay using T308tide as a substrate was performed essentially as previously described ([18], [28], [54]). In brief, the assay was performed in a 20 μl format containing 50 mM Tris pH 7.5, 0.05 mg/ml BSA, 0.1% ß-mercaptoethanol, 10 mM MgCl2, 100 μM [γ^32P]ATP (5-50 cpm/pmol), 0.003% Brij, 150-500 ng PDK1, and T308tide (0.3 mM) at room temperature. The assay was performed in 96 well plated and stopped by the addition of 5 μl of 0.1 % phosphoric acid. 4 μl aliquots were spotted on p81 phosphocellulose papers (Whatmann) using ep motion 5070 (Eppendorf). The phosphocellulose papers were washed in 0.01% phosphoric acid, dried, and exposed using PhosphoImager (FLA-9000 Starion). Data were analyzed with ImageQuant software (Fujifilm). Activity measurements were performed in technical duplicates or triplicates with less than 10% difference between replicates. Experiments were repeated at least twice. The activity measurements of PDK1 towards GS-022 and GS-023 were performed similarly, with the GS-peptides replacing T308tide at the indicated concentrations. GS-022 and GS-023 have features consistent with the loose characteristics disclosed for the peptide Ser/Thr 07, ((R/K)1-3(X)0-2 (S/T) (X)0-2(R/K)1-3, where X is any residue) used by the commercial “PDK1 Direct” assay.

[1] = molecular target: T2, full-length PDK1 (GST-PDK1_1-556) (Homo sapiens, UniProt O15530); test: Lipid overlay assay, di-C18-PIP3, full-length PDK1; type: binding
T2 construct: made in house; host or cells: HEK293 cells (transient transfection of pEBG2T)
T2 sequence (O15530 1-556): T1 sequence (O15530 1-556)
Protocol: Dots containing 2-1000 picomoles of di-C18-PIP3 ([70]) were prepared by spotting 1 μL of serial dilution stock solutions (2-1000 μM dissolved in a 1:2:0.8 by volume mixture of chloroform/methanol/water) onto Hybond-C extra membrane (GE Healthcare), which were dried at room temperature. Membranes were incubated with blocking buffer (50 mm Tris-HCl buffer pH 7.5, 2 mg/ml fatty acid free bovine serum albumin, 150 mM NaCl, and 0.1% (v/v) Tween 20) for 1 h at room temperature. Membranes were then incubated with 10 nM protein/10 μM inhibitor mixes in blocking buffer with gentle rocking overnight at 4 °C. Membranes were washed 10 times over 1 h at room temperature using TBST buffer (50 mM Tris-HCl pH 7.5, 150 mM NaCl, 0.1% (v/v) Tween 20) before being incubated for 1 h with 1:2000 dilution of rabbit recombinant anti-PDK1 monoclonal antibody (New England Biolabs). Membranes were washed and incubated with 1:2000 dilution of anti-rabbit HRP conjugated antibody (Invitrogen/Thermo Fisher) for 1 h at room temperature. Finally, after washing, proteins bound to the membranes were detected using Novex ECL chemiluminescent reagent (Invitrogen/Thermo Fisher) and developed on X-ray film.

| SMILES | effect on activity of full-length PDK1 toward T308tide (PDK1) | displacement of the interaction between PIP3 and full-length PDK1_1-556 [1] |
| --- | --- | --- |
| O=C(O[C@H]1[C@@H](OP(=O)(O)O)[C@H](OP(=O)(O)O)[C@@H](OP(=O)(O)O)[C@H](OP(=O)(O)O)[C@H]1OP(=O)(O)O)c1ccccc1 [HYG8, 2-O-benzoyl-IP5] | partially inhibited |  |
| CCCCO[C@H]1[C@@H](OP(=O)(O)O)[C@H](OP(=O)(O)O)[C@@H](OP(=O)(O)O)[C@H](OP(=O)(O)O)[C@H]1OP(=O)(O)O [HYG14, 2-O-butyl-IP5] |  | much more potent |
